Data set [1] concerns wild-type Drosophila. The following applies: in vivo. The method, then: (§1) Male F1 Drosophila one to three days after emergence were bred under an environment consisting of a temperature of 25±3° C., a humidity of 60±10%, and a light-dark cycle of 12 hours. […] The flies were transferred into a vial filled with fresh food once every two weeks.
Data set [2] deals with Drosophila expressing human tau in neurons (elav/Y; hTau/+). Put plainly: Motor function (climbing assay, negative gravitaxis) of Drosophila expressing human tau in neurons. In kind it is in vivo. The following applies: 1 mM in food, versus non-administration group, FIG. 5. Here is the method:
as §1
The motor function of Drosophila of was measured by performing climbing assay and evaluating negative gravitaxis. The climbing assay was carried out under the following conditions. Drosophila was transferred into an empty vial containing no food, and the vial was then hit, so that flies fell to the bottom. Thereafter, the movement of the flies climbing up the wall was captured on video. The flies, which were below the line drawn at the position 3 cm from the bottom 10 seconds after they had fallen to the bottom, were defined as “flies that could not climb”, and flies, which were above the aforementioned line, were defined as “flies that could climb”. The number of flies of each type was counted. The total number of flies in the vial was set at 100%, and the percentage of the flies that could climb was calculated.

Another data set has as its target T1, human tau protein (Homo sapiens, UniProt P10636).
T1 construct: expressed in transfected cells; host or cells: transgenic Drosophila (GAL4-UAS; gmr-gal4 compound eyes or elav^C155-gal4 neurons), fly heads
Put plainly: Quantification of aggregated tau in brain of Drosophila expressing human tau in neurons (elav/Y; hTau/+). The data set is classed as in vivo. The note with it: hTau/+ flies, 1 mM in food, bred 1 month, versus non-administration group (100%), FIG. 4. Here is the method: Thereafter, the recovered heads were cryopreserved at −80° C. […] The obtained supernatant was recovered in another ultracentrifuge tube.
Using the screening system established in 3 above, the tau protein aggregation-inhibiting effect of rose bengal, which is a fluorone dye, was evaluated. […] Thereafter, the accumulation of aggregated tau in brain was quantified according to the procedures in (2) above.

Data set [3] deals with Drosophila expressing human tau in mushroom body neurons (mb/Y; hTau/+). In words: Olfactory memory (discrimination learning test with odor and electric shock) of Drosophila expressing human tau in mushroom body neurons. The data set is classed as in vivo. The following applies: hTau/+ flies, administered over 1 week, versus non-administration, FIG. 9. Here is the method:
as §1

Data set [4] concerns wild-type Drosophila. In words: Survival rate of wild-type Drosophila. The following applies: wild-type flies, 1 mM in food, versus non-administration group, FIG. 7. Here is the method:
as §1
Drosophila were bred under the conditions described in (1) above, and the number of surviving flies was counted every three days, and the survival rate was then calculated.
As a control, the Drosophila in the non-administration group was used.

The subject of the next data set is tau proteins. The note with it: tauopathy model mice, Non-Patent Document 3; cited from earlier work.

T1 sequence (P10636 1-441 isoform P10636-8): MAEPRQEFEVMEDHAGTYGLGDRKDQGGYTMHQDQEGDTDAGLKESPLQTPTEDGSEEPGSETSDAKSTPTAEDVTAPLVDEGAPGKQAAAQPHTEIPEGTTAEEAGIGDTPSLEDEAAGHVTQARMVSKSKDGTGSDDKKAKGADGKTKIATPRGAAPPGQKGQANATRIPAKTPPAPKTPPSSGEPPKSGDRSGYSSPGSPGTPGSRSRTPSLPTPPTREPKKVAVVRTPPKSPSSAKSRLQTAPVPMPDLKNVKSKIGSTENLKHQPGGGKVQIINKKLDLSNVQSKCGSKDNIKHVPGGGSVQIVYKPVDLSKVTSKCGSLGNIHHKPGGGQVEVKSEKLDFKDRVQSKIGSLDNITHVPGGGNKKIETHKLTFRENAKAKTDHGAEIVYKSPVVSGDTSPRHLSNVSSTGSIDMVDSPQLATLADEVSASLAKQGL

As to `O=C([O-])c1c(Cl)c(Cl)c(Cl)c(Cl)c1-c1c2cc(I)c(=O)c(I)c-2oc2c(I)c([O-])c(I)cc12.[Na+].[Na+]` [rose bengal], the olfactory memory entry in the data set with wild-type Drosophila [1] was “no significant change”; in data set [3], “significantly improved”. The “motor function (percentage of flies that could climb)” value in data set [2] is reported as “recovered”. For the same compound, on human tau protein, the “accumulated amount of aggregated tau in brain” value is given as “reduction”.

For `CN(C)c1ccc2nc3ccc(=[N+](C)C)cc-3sc2c1` [methylene blue], in data set [2], the “motor function (percentage of flies that could climb)” value was “recovered”. Moreover, the survival rate entry in the data set with wild-type Drosophila [4] is on record as “significantly reduced”. For the same compound, the “accumulated amount of aggregated tau in brain” value at human tau protein is “reduction”.

Regarding `O=C1NC(=O)C(=O)C(=O)N1` [alloxan], the “accumulation of tau proteins in the brains” value in the data set with tau proteins is reported as “reduced”.
